In patent US7915416B2, “Tetrahydroquinolines” (Merck Patent GmbH, priority 2004, dated 2011):

Tested on: cells
Test: cell cycle experiments (G2/M)
Assay type: cell-based

Structure (SMILES): N=C(N)c1ccc(OCCCCCOc2ccc(C(=N)N)cc2)cc1 [pentamidine]
- effect on cell cycle: maintain cells in the G2/M cell cycle
